# Results published in ChEMBL document CHEMBL1201862, “PubChem BioAssay data set” (2004).
# The source made the active and inactive calls. For most assays here, no stated cut-off is given here; in the data, actives have a measured EC50 and inactives only a lower limit.
# How the values were obtained:
# H9c2 = experiment: cells; assay type: functional, cell-based; settings: Rattus norvegicus, H9c2, Myocardium;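 further: confirmatory concentration-response retest of ultra-high-throughput screening hits for modulation of myocardial damage; cell death induced by hydrogen peroxide oxidative stress; compound pretreatment for 60 min then peroxide exposure for 2 h; potency is for protecting the cells against peroxide damage rather than for killing them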
# [1] = fluconazole-exposed Candida albicans growth modulators – fluorescence, retest, confirmation (AID 2467); assay type: functional, cell-based
# [2] = NIH-3T3 fibroblast cytotoxicity, dose response, cytotoxicity control, cell-based, fluorescence, Alamar Blue, secondary assay (AID 2327); assay type: functional;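 further: NIH-3T3 mouse fibroblasts cultured with fluconazole at 8 µg/mL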
# Protein skinhead-1 = molecular target: T1, Protein skinhead-1 (Caenorhabditis elegans, UniProt P34707); assay type: functional
# T1 sequence (P34707 whole entry): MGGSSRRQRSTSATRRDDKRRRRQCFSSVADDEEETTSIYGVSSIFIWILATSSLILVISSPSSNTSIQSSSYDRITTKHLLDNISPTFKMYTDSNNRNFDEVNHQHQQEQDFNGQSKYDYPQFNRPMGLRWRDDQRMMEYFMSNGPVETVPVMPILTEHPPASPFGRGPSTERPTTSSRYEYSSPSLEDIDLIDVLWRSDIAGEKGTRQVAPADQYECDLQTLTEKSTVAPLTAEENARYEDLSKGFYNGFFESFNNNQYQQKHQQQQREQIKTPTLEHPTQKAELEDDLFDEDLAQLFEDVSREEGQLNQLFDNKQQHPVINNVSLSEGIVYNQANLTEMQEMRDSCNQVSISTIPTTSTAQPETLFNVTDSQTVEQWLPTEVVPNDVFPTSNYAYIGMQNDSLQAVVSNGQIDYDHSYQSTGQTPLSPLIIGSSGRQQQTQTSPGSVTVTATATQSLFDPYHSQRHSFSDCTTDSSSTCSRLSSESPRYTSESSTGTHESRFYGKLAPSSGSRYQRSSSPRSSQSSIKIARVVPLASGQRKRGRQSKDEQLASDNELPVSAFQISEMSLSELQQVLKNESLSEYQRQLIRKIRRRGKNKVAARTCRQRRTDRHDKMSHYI
# [3] = molecular target: T2, Corticotropin-releasing factor receptor 2/Corticotropin-releasing factor-binding protein (Homo sapiens, UniProt P24387+Q13324); experiment: activators of CRF receptor 2 with binding protein – uHTS hits, confirmation (AID 602473); assay type: functional; settings: read-out: EC50_Mean
# T2 sequence (Q13324 whole entry): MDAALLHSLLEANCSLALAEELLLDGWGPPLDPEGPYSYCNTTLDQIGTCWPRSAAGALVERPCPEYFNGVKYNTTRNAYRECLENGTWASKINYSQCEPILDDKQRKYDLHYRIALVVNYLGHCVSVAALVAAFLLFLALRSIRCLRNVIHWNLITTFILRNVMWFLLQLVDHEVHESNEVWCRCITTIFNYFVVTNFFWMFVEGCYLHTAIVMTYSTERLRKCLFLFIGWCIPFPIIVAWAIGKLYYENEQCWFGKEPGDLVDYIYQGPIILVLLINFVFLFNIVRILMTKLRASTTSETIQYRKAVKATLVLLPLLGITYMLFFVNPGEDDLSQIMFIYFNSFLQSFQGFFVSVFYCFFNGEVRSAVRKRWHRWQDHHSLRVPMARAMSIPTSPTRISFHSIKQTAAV
# T2 sequence (P24387 whole entry): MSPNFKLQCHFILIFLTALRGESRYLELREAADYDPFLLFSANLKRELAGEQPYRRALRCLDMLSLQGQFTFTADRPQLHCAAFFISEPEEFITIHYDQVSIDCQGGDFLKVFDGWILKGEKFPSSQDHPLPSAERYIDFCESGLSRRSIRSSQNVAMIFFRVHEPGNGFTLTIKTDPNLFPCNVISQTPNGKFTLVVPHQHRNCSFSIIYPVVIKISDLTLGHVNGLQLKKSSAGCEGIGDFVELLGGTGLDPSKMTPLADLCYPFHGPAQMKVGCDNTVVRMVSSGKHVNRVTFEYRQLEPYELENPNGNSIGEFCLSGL
# [4] = molecular target: T2, Corticotropin-releasing factor receptor 2/Corticotropin-releasing factor-binding protein; experiment: Dose Response confirmation of uHTS hits for small molecule antagonists of the CRF-binding protein and CRF-R2 receptor complex.; assay type: functional; settings: read-out: IC50_Mean
# H4 = experiment: Luminescence Cell-Based Dose Response HTS to Identify Activators of 5'UTR Stem-Loop Driven Prion Protein mRNA Translation in H4 Neuroglioblastoma Cells. [Related pubchem assays: 1829 (Project Summary), 1814 (Primary HTS)]; assay type: functional; settings: Homo sapiens
# [5] = Luminescence Cell-Based Dose Confirmation HTS to Identify Activators of 5'UTR Stem-Loop Driven Alpha-Synuclein mRNA Translation in H4 Neuroglioblastoma Cells. [Related pubchem assays: 1829 (Project Summary), 1814 (Primary HTS)]; assay type: functional
# [6] = Luminescence Cell-Based Dose Response HTS to Identify Activators of Luciferase Translation or Activity in H4 […] Cells. [Related pubchem assays: 1829 (Project Summary), 1814 (Primary HTS)]; assay type: functional
# [7] = molecular target: Luciferin 4-monooxygenase (Photinus pyralis, UniProt P08659); experiment: inhibition of purified Photinus pyralis luciferase – biochemical, luminescence, dose response (AID 1891)
# Luciferin 4-monooxygenase, sequence (P08659 whole entry): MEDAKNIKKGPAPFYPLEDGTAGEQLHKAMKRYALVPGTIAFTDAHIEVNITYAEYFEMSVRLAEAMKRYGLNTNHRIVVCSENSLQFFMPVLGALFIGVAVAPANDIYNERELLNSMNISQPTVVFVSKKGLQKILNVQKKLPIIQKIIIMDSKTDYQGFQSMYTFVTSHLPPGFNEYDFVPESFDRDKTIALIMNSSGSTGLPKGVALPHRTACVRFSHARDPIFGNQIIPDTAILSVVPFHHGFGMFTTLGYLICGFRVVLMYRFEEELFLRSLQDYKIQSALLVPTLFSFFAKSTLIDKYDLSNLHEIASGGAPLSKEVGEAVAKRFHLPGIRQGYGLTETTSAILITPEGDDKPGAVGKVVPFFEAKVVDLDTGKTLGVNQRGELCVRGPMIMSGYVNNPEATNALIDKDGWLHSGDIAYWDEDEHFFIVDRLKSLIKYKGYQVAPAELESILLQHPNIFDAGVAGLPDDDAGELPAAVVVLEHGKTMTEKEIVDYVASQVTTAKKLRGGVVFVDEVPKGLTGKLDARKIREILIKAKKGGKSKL
# [8] = Luminescence Cell-Based Dose Confirmation HTS to Identify Inhibitors of Platelet Dense Granule Release. [Related pubchem assays: 1663 (Primary HTS), 1678 (Summary of Project)]; assay type: functional
# [9] = viability of uninfected HEp-2 cells – cell-based, HTS, cytotoxicity control for RSV inhibitor project, dose response (AID 2410); assay type: functional; settings: human respiratory syncytial virus
# [10] = NIH3T3 cell viability loss – ATP luminescence, mouse fibroblasts, counter-screen, dose response (AID 2010); assay type: functional, cell-based;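 further: cells exposed to compound for about 90 hours before reading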
# [11] = Trypanosoma cruzi growth suppression in host cells – NIH3T3 host cells, beta-gal luminescence, confirmation (AID 2044); assay type: functional, cell-based;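 further: intracellular parasites grown in NIH/3T3 mouse fibroblasts as host cells; luminescent beta-galactosidase reporter signal from transgenic T. cruzi replicating inside host cells; inhibitors lower the luminescence signal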
# [12] = molecular target: T3, Heat shock factor protein 1 (Mus musculus, UniProt P38532); experiment: enhancement of HSF1-driven luciferase signal – cell-based, NIH3T3, luminescence, dose retest, confirmation (AID 435004); assay type: functional;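 further: stress induced by proteasome inhibitor MG132 added 30 min after compound; luciferase reporter driven by HSF1 response element in NIH3T3 cells; actives raise luminescence as potentiators of the MG132 stress response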
# T3 sequence (P38532 whole entry): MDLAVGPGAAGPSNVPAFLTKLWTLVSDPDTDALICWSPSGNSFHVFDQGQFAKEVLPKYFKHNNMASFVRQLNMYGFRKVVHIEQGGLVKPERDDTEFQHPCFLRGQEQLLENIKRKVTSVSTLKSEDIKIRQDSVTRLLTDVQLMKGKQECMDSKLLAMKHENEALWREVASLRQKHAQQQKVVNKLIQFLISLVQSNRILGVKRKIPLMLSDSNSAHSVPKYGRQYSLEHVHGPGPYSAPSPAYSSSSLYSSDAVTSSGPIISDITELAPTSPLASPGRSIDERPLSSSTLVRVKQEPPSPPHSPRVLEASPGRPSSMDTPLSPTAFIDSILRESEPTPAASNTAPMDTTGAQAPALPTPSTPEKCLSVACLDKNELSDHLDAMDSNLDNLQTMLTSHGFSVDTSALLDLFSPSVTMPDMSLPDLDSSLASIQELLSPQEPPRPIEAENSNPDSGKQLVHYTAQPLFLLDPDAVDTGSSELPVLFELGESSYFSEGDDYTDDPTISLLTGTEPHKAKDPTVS
smiles,measurement,setting,value
Cc1sc2nc(CSCC(=O)N(C)c3ccccc3)nc(O)c2c1C,IC50,H9c2,> 79 µM (inactive)
Cc1cc(C(=O)Nc2ccccc2C(=O)O)ccc1NC(=O)COc1cccc([N+](=O)[O-])c1,EC50,[1],3.79 µM (active)
same,EC50,[2],22.8 µM (inconclusive)
CCOC(=O)C1=C(NC(=O)c2ccc(S(=O)(=O)N(C)C)cc2)Nc2ccccc2N=C1CC,IC50,H9c2,> 79 µM (inactive)
CC1CCN(c2oc(-c3ccccc3F)nc2C#N)CC1,IC50,Protein skinhead-1,> 100 µM (inactive)
CCOC(=O)C1(CC2CCCCO2)CCN(Cc2nccn2-c2ccc(OC)cc2)CC1 (stereo not drawn),EC50,[3],> 53 µM (inactive)
same,IC50,[4],> 47.1 µM (inactive)
CCc1cc(C=C(Cl)Cl)oc(=O)c1C,EC50,H4,> 120 µM (not active)
same,EC50,[5],6.98 µM (active)
same,EC50,[6],8.12 µM (active)
CC(=O)N1CCN(c2ccc(NC(=O)c3ccc(C(C)(C)C)cc3)cc2)CC1,EC50,[1],7.14 µM (active)
same,EC50,[2],> 160 µM (inactive)
CC(=O)Nc1cc(C(N)=O)c(Cl)cc1Cl,EC50,[3],> 53 µM (inactive)
same,IC50,[4],> 47.1 µM (inactive)
O=C(OCC(=O)c1cccs1)C1=COCCO1,EC50,H4,8.15 µM (active)
same,EC50,[5],15.4 µM (active)
same,EC50,[6],9.36 µM (active)
Cc1ccc(C(=O)c2c3ccccc3[n+]([O-])n2[C@@H](C)C(N)=O)cc1,EC50,H4,38 µM (active)
same,EC50,[5],6.39 µM (active)
same,EC50,[6],11.2 µM (active)
Cn1c(=O)c2c(nc(NCc3cccnc3)n2Cc2cccc(C(F)(F)F)c2)n(C)c1=O,IC50,H9c2,14 µM (active)
CC(C)(C)OC(=O)N1CCC(NC(=O)c2[nH]cnc2C(=O)NCC(=O)OCc2ccccc2)CC1,IC50,H9c2,47 µM (inactive)
CCC(=O)N1CCN(c2ccccc2NC(=O)c2ccc(-c3cccc([N+](=O)[O-])c3)o2)CC1,IC50,H9c2,> 79 µM (inactive)
CCCc1nc2sc3c(O)ncnc3c2c2c1CCCC2,EC50,[7],> 112 µM (not active)
same,EC50,[8],> 112 µM (not active)
Cc1ccc(NC(=O)c2cccs2)cc1NC(=O)c1ccco1,IC50,Protein skinhead-1,> 100 µM (inactive)
CC(=O)Nc1ccc(S(=O)(=O)N2CCC(NC(C)=O)(c3cccc(F)c3)CC2)cc1,EC50,[3],> 53 µM (inactive)
same,IC50,[4],> 47.1 µM (inactive)
Cc1cccc(-n2c(SCc3cc(=O)n4ccsc4n3)nc3ccccc3c2=O)c1,CC50,[9],39.5 µM (active)
same,IC50,H9c2,> 79 µM (inactive)
COc1ccc(CCC(=O)NCCS(=O)(=O)N2CCN(c3ccccc3OC)CC2)cc1,EC50,H4,> 120 µM (not active)
same,EC50,[5],> 120 µM (not active)
same,EC50,[6],> 120 µM (not active)
Cc1nn(C)c(=O)n1-c1ccc(OCc2ccccc2)cc1,EC50,H4,12.9 µM (active)
same,EC50,[5],8.8 µM (active)
same,EC50,[6],49.9 µM (active)
O=C(NCc1ccncc1)/C(=C/c1cccc([N+](=O)[O-])c1)NC(=O)c1ccccc1,EC50,[7],> 112 µM (not active)
same,EC50,[8],> 112 µM (not active)
O=C(COC(=O)c1ccc(Cl)nc1)Nc1ccc2ccccc2c1,IC50,Protein skinhead-1,> 100 µM (inactive)
COc1ccccc1-n1c(C)cc(SC)c(C(C)=O)c1=S,EC50,[1],14 µM (active)
same,EC50,[2],> 150 µM (inactive)
O=C(NCCCN1CCCCC1)c1ccc2c(=O)n(CCc3ccccc3)c(=O)[nH]c2c1,EC50,H4,93.9 µM (active)
same,EC50,[5],> 120 µM (not active)
same,EC50,[6],12.2 µM (active)
Cc1ccc(NC(=O)/C(C#N)=C/c2cn(CC(=O)NCc3ccco3)c3ccccc23)cc1C,EC50,[3],> 53 µM (inactive)
same,IC50,[4],> 47.1 µM (inactive)
Cc1ccc(NC(=O)Nc2cccc(Cl)c2)c(C(=O)O)c1,EC50,[7],17.2 µM (active)
same,EC50,[8],> 112 µM (not active)
CC(C)n1c(N2CCN(C(=O)Nc3ccc(Cl)cc3)CC2)nc2ccccc21,EC50,[1],> 38 µM (not active)
same,EC50,[2],140 µM (active)
Cc1ccccc1[S+]([O-])Cc1ccc(C(=O)N2CCN(C(=O)c3ccco3)CC2)o1 (stereo not drawn),IC50,Protein skinhead-1,> 100 µM (inactive)
Cc1nc2sccn2c(=O)c1S(=O)(=O)N1CCN(c2ccc(F)cc2)CC1,EC50,[7],> 112 µM (not active)
same,EC50,[8],> 112 µM (not active)
COc1cc2nc(SCc3ccc(Cl)cc3Cl)n(Cc3cccs3)c(=N)c2cc1OC,EC50,[1],> 38 µM (not active)
same,EC50,[2],> 160 µM (inactive)
same,EC50,[10],> 60 µM (inconclusive)
same,EC50,[11],2.09 µM (active)
Clc1ccc(-c2[nH]nc3c2CCCC3)cc1,CC50,[9],37.1 µM (active)
same,EC50,H4,54.4 µM (active)
same,EC50,[5],10.4 µM (active)
same,EC50,[6],16.2 µM (active)
CN(CC(=O)NCc1ccc(F)cc1)S(=O)(=O)c1ccc(Br)s1,EC50,[3],> 53 µM (inactive)
same,IC50,[4],> 47.1 µM (inactive)
O=C1c2ccccc2C(=O)c2c1ccc(C(=O)N1CCCCC1)c2NCCO,IC50,Protein skinhead-1,> 100 µM (inactive)
CCc1ccc(NC(=O)c2cc(-c3ccco3)on2)cc1,IC50,Protein skinhead-1,> 100 µM (inactive)
O=C(NCCO)c1c(O)c2cccc3c2n(c1=O)CC3,EC50,[3],> 53 µM (inactive)
same,IC50,[4],> 47.1 µM (inactive)
C=CCn1c(Oc2ccccc2)nc2c1c(=O)n(C)c(=O)n2C,EC50,[3],> 53 µM (inactive)
Cc1ccc2nc(SCC(=O)N3CCOCC3)[nH]c2c1,EC50,[3],> 53 µM (inactive)
same,IC50,[4],> 47.1 µM (inactive)
CSc1cc(-c2ccco2)oc1C(=O)c1ccco1,IC50,Protein skinhead-1,> 100 µM (inactive)
same,EC50,[12],> 260 µM (inactive)
O=C1c2cc(Br)ccc2OC2C=CC=CC12 (stereo not drawn),IC50,Protein skinhead-1,81 µM (inactive)
CCOc1ccccc1N(CC(=O)N1CCC(C(N)=O)CC1)S(=O)(=O)c1ccc(SC)cc1,EC50,[3],> 53 µM (inactive)
same,IC50,[4],> 47.1 µM (inactive)
CCc1nc2ccc(C(=O)NCc3cccs3)cn2c1N(C)Cc1nccs1,IC50,H9c2,12.8 µM (active)
CC(C)(C)C(=O)Nc1ccc(C(=O)N/N=C/c2ccccc2OC(=O)c2ccccc2)cc1,IC50,H9c2,31.5 µM (inactive)
COc1cc(C(=O)N/N=C/c2ccc(OC(=O)c3ccccc3)c(OC)c2)ccc1O,IC50,H9c2,> 79 µM (inactive)
